Assay results from patent US10765114B2, “4-amino-6-(pyridyl and 2-substitutedphenyl)-picolinates and 6-amino-2-(pyridyl and 2-substitutedphenyl)-pyrimidine-4-carboxylates and their use as herbicides” (Dow AgroSciences LLC, priority 2013, dated 2020).

system: Key Broadleaf Weed and Crop Species; test: Post-Emergent Test II (Table 5); assay type: in vivo; conditions: Abutilon theophrasti, post-emergence, 336 h, ABUTH: velvetleaf (Abutilon theophrasti), application rate 70 (kg ai/ha; footnote: g ai/ha), read-out: Visual Growth Reduction (%) 14 Days After Application ABUTH
In short: (§1)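 Post-emergence greenhouse spray, 1st-2nd true leaf stage; track sprayer, 187 L/ha; acetone/DMSO stock diluted in aqueous acetone/IPA/DMSO with Atplus 411F and Triton X-155; rates 1× to 1/16×; subirrigated; visual injury 0 (none) to 100% (complete kill) at 14 days.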

SMILES	pest or weed control at 70 g/ha [%]
COC(=O)c1nc(-c2ccc(Cl)c(F)c2C)c(F)c(N)c1Cl [Compound 68]	95 to 100

same assay, conditions: Abutilon theophrasti, post-emergence, 336 h, ABUTH: velvetleaf (Abutilon theophrasti), application rate 140 (kg ai/ha; footnote: g ai/ha), read-out: Visual Growth Reduction (%) 14 Days After Application ABUTH

SMILES	pest or weed control at 140 g/ha [%]
COC(=O)c1nc(-c2ccc(Cl)c(F)c2C)c(F)c(N)c1Cl [Compound 68]	95 to 100

same assay, conditions: Amaranthus retroflexus, post-emergence, 336 h, AMARE: redroot pigweed (Amaranthus retroflexus), application rate 70 (kg ai/ha; footnote: g ai/ha), read-out: Visual Growth Reduction (%) 14 Days After Application AMARE

SMILES	pest or weed control at 70 g/ha [%]
COC(=O)c1nc(-c2ccc(Cl)c(F)c2C)c(F)c(N)c1Cl [Compound 68]	95 to 100

same assay, conditions: Amaranthus retroflexus, post-emergence, 336 h, AMARE: redroot pigweed (Amaranthus retroflexus), application rate 140 (kg ai/ha; footnote: g ai/ha), read-out: Visual Growth Reduction (%) 14 Days After Application AMARE

SMILES	pest or weed control at 140 g/ha [%]
COC(=O)c1nc(-c2ccc(Cl)c(F)c2C)c(F)c(N)c1Cl [Compound 68]	95 to 100

same assay, conditions: Brassica napus, post-emergence, 336 h, BRSSS: oilseed rape, canola (Brassica napus), application rate 70 (kg ai/ha; footnote: g ai/ha), read-out: Visual Growth Reduction (%) 14 Days After Application BRSSS

SMILES	pest or weed control at 70 g/ha [%]
COC(=O)c1nc(-c2ccc(Cl)c(F)c2C)c(F)c(N)c1Cl [Compound 68]	85 to 94

same assay, conditions: Brassica napus, post-emergence, 336 h, BRSSS: oilseed rape, canola (Brassica napus), application rate 140 (kg ai/ha; footnote: g ai/ha), read-out: Visual Growth Reduction (%) 14 Days After Application BRSSS

SMILES	pest or weed control at 140 g/ha [%]
COC(=O)c1nc(-c2ccc(Cl)c(F)c2C)c(F)c(N)c1Cl [Compound 68]	95 to 100

same assay, conditions: Chenopodium album, post-emergence, 336 h, CHEAL: lambsquarters (Chenopodium album), application rate 70 (kg ai/ha; footnote: g ai/ha), read-out: Visual Growth Reduction (%) 14 Days After Application CHEAL

SMILES	pest or weed control at 70 g/ha [%]
COC(=O)c1nc(-c2ccc(Cl)c(F)c2C)c(F)c(N)c1Cl [Compound 68]	95 to 100

same assay, conditions: Chenopodium album, post-emergence, 336 h, CHEAL: lambsquarters (Chenopodium album), application rate 140 (kg ai/ha; footnote: g ai/ha), read-out: Visual Growth Reduction (%) 14 Days After Application CHEAL

SMILES	pest or weed control at 140 g/ha [%]
COC(=O)c1nc(-c2ccc(Cl)c(F)c2C)c(F)c(N)c1Cl [Compound 68]	95 to 100

same assay, conditions: Euphorbia heterophylla, post-emergence, 336 h, EPHHL: wild poinsettia (Euphorbia heterophylla), application rate 70 (kg ai/ha; footnote: g ai/ha), read-out: Visual Growth Reduction (%) 14 Days After Application EPHHL

SMILES	pest or weed control at 70 g/ha [%]
COC(=O)c1nc(-c2ccc(Cl)c(F)c2C)c(F)c(N)c1Cl [Compound 68]	0 to 29

same assay, conditions: Euphorbia heterophylla, post-emergence, 336 h, EPHHL: wild poinsettia (Euphorbia heterophylla), application rate 140 (kg ai/ha; footnote: g ai/ha), read-out: Visual Growth Reduction (%) 14 Days After Application EPHHL

SMILES	pest or weed control at 140 g/ha [%]
COC(=O)c1nc(-c2ccc(Cl)c(F)c2C)c(F)c(N)c1Cl [Compound 68]	0 to 29

same assay, conditions: Helianthus annuus, post-emergence, 336 h, HELAN: sunflower (Helianthus annuus), application rate 70 (kg ai/ha; footnote: g ai/ha), read-out: Visual Growth Reduction (%) 14 Days After Application HELAN

SMILES	pest or weed control at 70 g/ha [%]
COC(=O)c1nc(-c2ccc(Cl)c(F)c2C)c(F)c(N)c1Cl [Compound 68]	95 to 100

same assay, conditions: Helianthus annuus, post-emergence, 336 h, HELAN: sunflower (Helianthus annuus), application rate 140 (kg ai/ha; footnote: g ai/ha), read-out: Visual Growth Reduction (%) 14 Days After Application HELAN

SMILES	pest or weed control at 140 g/ha [%]
COC(=O)c1nc(-c2ccc(Cl)c(F)c2C)c(F)c(N)c1Cl [Compound 68]	95 to 100

same assay, conditions: Viola tricolor, post-emergence, 336 h, VIOTR: wild pansy (Viola tricolor), application rate 70 (kg ai/ha; footnote: g ai/ha), read-out: Visual Growth Reduction (%) 14 Days After Application VIOTR

SMILES	pest or weed control at 70 g/ha [%]
COC(=O)c1nc(-c2ccc(Cl)c(F)c2C)c(F)c(N)c1Cl [Compound 68]	30 to 44

same assay, conditions: Viola tricolor, post-emergence, 336 h, VIOTR: wild pansy (Viola tricolor), application rate 140 (kg ai/ha; footnote: g ai/ha), read-out: Visual Growth Reduction (%) 14 Days After Application VIOTR

SMILES	pest or weed control at 140 g/ha [%]
COC(=O)c1nc(-c2ccc(Cl)c(F)c2C)c(F)c(N)c1Cl [Compound 68]	30 to 44

system: Key Grass and Sedge Weeds as well as Grass Crops; test: Post-Emergent Test II (Table 6); assay type: in vivo; conditions: post-emergence, 336 h, CYPSS, 70 g ai/ha, 14 days after application, read-out: Visual Growth Reduction (%) 14 Days After Application CYPSS
In short: as §1

SMILES	pest or weed control at 70 g/ha [%]
COC(=O)c1nc(-c2ccc(Cl)c(F)c2C)c(F)c(N)c1Cl [Compound 68]	0 to 29

same assay, conditions: post-emergence, 336 h, CYPSS, 140 g ai/ha, 14 days after application, read-out: Visual Growth Reduction (%) 14 Days After Application CYPSS

SMILES	pest or weed control at 140 g/ha [%]
COC(=O)c1nc(-c2ccc(Cl)c(F)c2C)c(F)c(N)c1Cl [Compound 68]	0 to 29

same assay, conditions: post-emergence, 336 h, DIGSA: crabgrass (Digitaria sanguinalis), 70 g ai/ha, 14 days after application, read-out: Visual Growth Reduction (%) 14 Days After Application DIGSA

SMILES	pest or weed control at 70 g/ha [%]
COC(=O)c1nc(-c2ccc(Cl)c(F)c2C)c(F)c(N)c1Cl [Compound 68]	0 to 29

same assay, conditions: post-emergence, 336 h, DIGSA: crabgrass (Digitaria sanguinalis), 140 g ai/ha, 14 days after application, read-out: Visual Growth Reduction (%) 14 Days After Application DIGSA

SMILES	pest or weed control at 140 g/ha [%]
COC(=O)c1nc(-c2ccc(Cl)c(F)c2C)c(F)c(N)c1Cl [Compound 68]	0 to 29

same assay, conditions: post-emergence, 336 h, ECHSS, 70 g ai/ha, 14 days after application, read-out: Visual Growth Reduction (%) 14 Days After Application ECHSS

SMILES	pest or weed control at 70 g/ha [%]
COC(=O)c1nc(-c2ccc(Cl)c(F)c2C)c(F)c(N)c1Cl [Compound 68]	0 to 29

same assay, conditions: post-emergence, 336 h, ECHSS, 140 g ai/ha, 14 days after application, read-out: Visual Growth Reduction (%) 14 Days After Application ECHSS

SMILES	pest or weed control at 140 g/ha [%]
COC(=O)c1nc(-c2ccc(Cl)c(F)c2C)c(F)c(N)c1Cl [Compound 68]	0 to 29

same assay, conditions: post-emergence, 336 h, ORYSS (crop), 70 g ai/ha, 14 days after application, read-out: Visual Growth Reduction (%) 14 Days After Application ORYSS

SMILES	pest or weed control at 70 g/ha [%]
COC(=O)c1nc(-c2ccc(Cl)c(F)c2C)c(F)c(N)c1Cl [Compound 68]	0 to 29

same assay, conditions: post-emergence, 336 h, ORYSS (crop), 140 g ai/ha, 14 days after application, read-out: Visual Growth Reduction (%) 14 Days After Application ORYSS

SMILES	pest or weed control at 140 g/ha [%]
COC(=O)c1nc(-c2ccc(Cl)c(F)c2C)c(F)c(N)c1Cl [Compound 68]	0 to 29

same assay, conditions: post-emergence, 336 h, SETFA: giant foxtail (Setaria faberi), 70 g ai/ha, 14 days after application, read-out: Visual Growth Reduction (%) 14 Days After Application SETFA

SMILES	pest or weed control at 70 g/ha [%]
COC(=O)c1nc(-c2ccc(Cl)c(F)c2C)c(F)c(N)c1Cl [Compound 68]	0 to 29

same assay, conditions: post-emergence, 336 h, SETFA: giant foxtail (Setaria faberi), 140 g ai/ha, 14 days after application, read-out: Visual Growth Reduction (%) 14 Days After Application SETFA

SMILES	pest or weed control at 140 g/ha [%]
COC(=O)c1nc(-c2ccc(Cl)c(F)c2C)c(F)c(N)c1Cl [Compound 68]	0 to 29

same assay, conditions: post-emergence, 336 h, SORVU: grain sorghum (Sorghum vulgare), 70 g ai/ha, 14 days after application, read-out: Visual Growth Reduction (%) 14 Days After Application SORVU

SMILES	pest or weed control at 70 g/ha [%]
COC(=O)c1nc(-c2ccc(Cl)c(F)c2C)c(F)c(N)c1Cl [Compound 68]	0 to 29

same assay, conditions: post-emergence, 336 h, SORVU: grain sorghum (Sorghum vulgare), 140 g ai/ha, 14 days after application, read-out: Visual Growth Reduction (%) 14 Days After Application SORVU

SMILES	pest or weed control at 140 g/ha [%]
COC(=O)c1nc(-c2ccc(Cl)c(F)c2C)c(F)c(N)c1Cl [Compound 68]	0 to 29

same assay, conditions: post-emergence, 336 h, TRZSS (crop), 70 g ai/ha, 14 days after application, read-out: Visual Growth Reduction (%) 14 Days After Application TRZSS

SMILES	pest or weed control at 70 g/ha [%]
COC(=O)c1nc(-c2ccc(Cl)c(F)c2C)c(F)c(N)c1Cl [Compound 68]	0 to 29

same assay, conditions: post-emergence, 336 h, TRZSS (crop), 140 g ai/ha, 14 days after application, read-out: Visual Growth Reduction (%) 14 Days After Application TRZSS

SMILES	pest or weed control at 140 g/ha [%]
COC(=O)c1nc(-c2ccc(Cl)c(F)c2C)c(F)c(N)c1Cl [Compound 68]	0 to 29

same assay, conditions: post-emergence, 336 h, ZEAMX: maize, corn (Zea mays), 70 g ai/ha, 14 days after application, read-out: Visual Growth Reduction (%) 14 Days After Application ZEAMX

SMILES	pest or weed control at 70 g/ha [%]
COC(=O)c1nc(-c2ccc(Cl)c(F)c2C)c(F)c(N)c1Cl [Compound 68]	0 to 29

same assay, conditions: post-emergence, 336 h, ZEAMX: maize, corn (Zea mays), 140 g ai/ha, 14 days after application, read-out: Visual Growth Reduction (%) 14 Days After Application ZEAMX

SMILES	pest or weed control at 140 g/ha [%]
COC(=O)c1nc(-c2ccc(Cl)c(F)c2C)c(F)c(N)c1Cl [Compound 68]	0 to 29

system: not given; test: not given; conditions: not given

melting point [°C]	SMILES
154 to 156	COC(=O)c1nc(-c2ccc(Cl)c(F)c2C)c(F)c(N)c1Cl [Compound 68]
